The values below come from ChEMBL document CHEMBL4346710, “Discovery of 7H-pyrrolo[2,3-d]pyrimidine derivatives as selective covalent irreversible inhibitors of interleukin-2-inducible T-cell kinase (Itk)” (Eur J Med Chem, 2019).

SMILES strings stand for the structures. The source made the active and inactive calls. No cut-off for these calls is given here.

The target of test [1] is Hepatocyte growth factor receptor (Homo sapiens) (UniProt P08581). The test is described as follows: Inhibition of recombinant human N-terminal His-tagged cMET cytoplasmic domain (956 to 1390 residues) expressed in baculovirus expression system assessed as enzyme residual activity at 0.4 uM using fluorophore-labeled tyrosine 6 peptide as substrate incubated for 60 mins by Z'-LYTE assay relative to control.

A further test relates to Jurkat. The test is described as follows: Growth inhibition of human Jurkat cells incubated for 72 hrs by CellTiter-Glo luminescent cell viability assay. Format: functional. A general note: In ATP-based viability assays light output follows the ATP content of the culture.
The species named for a further test is Homo sapiens. The test is described as follows: Selectivity ratio of IC50 for recombinant human full-length N-terminal His6-tagged BTK expressed in baculovirus infected Sf21 insect cells to IC50 for recombinant human N-terminal His6-tagged ITK (352 to 617 residues) expressed in baculovirus infected Sf21 insect cells.
For test [2], the target named is Mitogen-activated protein kinase 8 (Homo sapiens) (UniProt P45983). Kind of test: Inhibition of tracer 236 binding to recombinant full length human His-tagged MAPK8 expressed in baculovirus expression system assessed as enzyme residual activity at 0.4 uM incubated for 60 mins by Lanthascreen assay relative to control. Background: TR-FRET usually uses a lanthanide donor and a delayed reading to cut background.

Test [3] addresses Mitogen-activated protein kinase 14 (Homo sapiens) (UniProt Q16539). The test is described as follows: Inhibition of recombinant full length human GST-tagged MAPK14 expressed in Escherichia coli assessed as enzyme residual activity at 0.4 uM using fluorophore-labeled serine/threonine-04 peptide as substrate incubated for 60 mins by Z'-LYTE assay relative to control.
Test [4] has as its target Interleukin-1 receptor-associated kinase 4 (Homo sapiens) (UniProt Q9NWZ3). The test is described as follows: Inhibition of recombinant human His-tagged IRAK4 expressed in baculovirus expression system assessed as enzyme residual activity at 0.4 uM using fluorophore-labeled serine/threonine-7 peptide as substrate incubated for 60 mins by Z'-LYTE assay relative to control.

Test [5] addresses Serine/threonine-protein kinase Chk2 (Homo sapiens) (UniProt O96017). Kind of test: Inhibition of recombinant full length human His-tagged CHEK2 expressed in baculovirus expression system assessed as enzyme residual activity at 0.4 uM using fluorophore-labeled serine/threonine-07 peptide as substrate incubated for 60 mins by Z'-LYTE assay relative to control.
The target of test [6] is T1, Tyrosine-protein kinase JAK3 (Homo sapiens, UniProt P52333).
T1 sequence (P52333 whole entry): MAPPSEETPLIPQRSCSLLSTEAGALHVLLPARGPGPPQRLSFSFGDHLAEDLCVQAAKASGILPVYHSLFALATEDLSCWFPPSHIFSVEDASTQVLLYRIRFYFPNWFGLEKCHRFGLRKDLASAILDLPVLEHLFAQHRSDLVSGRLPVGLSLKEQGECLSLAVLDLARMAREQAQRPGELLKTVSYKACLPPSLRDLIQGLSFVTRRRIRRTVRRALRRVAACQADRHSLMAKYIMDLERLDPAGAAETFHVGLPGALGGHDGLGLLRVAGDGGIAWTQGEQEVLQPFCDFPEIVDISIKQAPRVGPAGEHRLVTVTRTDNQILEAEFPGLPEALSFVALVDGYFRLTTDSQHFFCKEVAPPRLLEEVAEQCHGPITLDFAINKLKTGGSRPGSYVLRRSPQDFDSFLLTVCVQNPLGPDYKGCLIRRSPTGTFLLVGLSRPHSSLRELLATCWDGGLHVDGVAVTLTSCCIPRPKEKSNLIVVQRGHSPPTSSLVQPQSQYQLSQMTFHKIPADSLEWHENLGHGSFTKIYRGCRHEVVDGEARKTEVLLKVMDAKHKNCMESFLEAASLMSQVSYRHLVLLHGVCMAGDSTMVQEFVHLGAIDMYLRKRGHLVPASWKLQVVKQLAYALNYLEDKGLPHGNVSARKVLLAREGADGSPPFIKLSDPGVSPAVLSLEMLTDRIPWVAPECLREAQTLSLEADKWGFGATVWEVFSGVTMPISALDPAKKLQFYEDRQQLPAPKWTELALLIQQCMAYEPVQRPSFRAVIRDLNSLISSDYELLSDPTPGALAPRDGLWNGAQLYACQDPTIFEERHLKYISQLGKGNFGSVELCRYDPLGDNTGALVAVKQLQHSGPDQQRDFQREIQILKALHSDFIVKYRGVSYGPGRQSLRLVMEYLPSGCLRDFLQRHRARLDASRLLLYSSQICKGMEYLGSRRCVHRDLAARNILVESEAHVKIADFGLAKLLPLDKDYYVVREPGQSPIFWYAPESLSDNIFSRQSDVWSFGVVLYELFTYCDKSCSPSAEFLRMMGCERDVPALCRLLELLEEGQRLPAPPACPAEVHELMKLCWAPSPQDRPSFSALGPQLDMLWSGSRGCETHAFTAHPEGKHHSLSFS
Kind of test: Inhibition of recombinant human N-terminal His6-tagged JAK3 (781 to end residues) expressed in baculovirus infected Sf21 cells using STK as substrate by HTRF assay.

A further test concerns CCRF-CEM. Kind of test: Induction of apoptosis in human CCRF-CEM cells assessed as downregulation of caspase3 at 1 to 5 uM incubated for 24 hrs by Western blot analysis. It is filed as functional, cell-based. (A western blot detects proteins with antibodies after separation by electrophoresis.)
Test [7] addresses T2, Tyrosine-protein kinase Blk (Homo sapiens, UniProt P51451). The test is described as follows: Inhibition of recombinant full-length human His-tagged BLK cytoplasmic domain expressed in baculovirus expression system assessed as enzyme residual activity at 0.4 uM using fluorophore-labeled tyrosine-1 peptide as substrate incubated for 60 mins by Z'-LYTE assay relative to control.
Target sequence in this assay (P51451 2-505 limits assumed): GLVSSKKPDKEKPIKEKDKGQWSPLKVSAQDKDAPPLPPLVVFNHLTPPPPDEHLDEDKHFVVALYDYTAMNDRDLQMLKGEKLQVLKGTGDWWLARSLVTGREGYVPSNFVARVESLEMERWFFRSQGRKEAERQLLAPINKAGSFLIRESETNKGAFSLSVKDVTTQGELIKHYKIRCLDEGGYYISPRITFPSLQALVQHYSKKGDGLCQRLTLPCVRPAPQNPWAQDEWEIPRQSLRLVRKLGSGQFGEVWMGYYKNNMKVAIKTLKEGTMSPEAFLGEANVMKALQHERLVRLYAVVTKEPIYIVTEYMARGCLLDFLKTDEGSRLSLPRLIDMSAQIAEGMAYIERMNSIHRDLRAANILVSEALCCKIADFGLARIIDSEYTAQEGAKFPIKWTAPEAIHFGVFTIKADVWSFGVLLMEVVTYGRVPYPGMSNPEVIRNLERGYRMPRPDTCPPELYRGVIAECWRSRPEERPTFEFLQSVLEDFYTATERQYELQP

Test [8] concerns the target T2, Tyrosine-protein kinase Blk. Kind of test: Inhibition of recombinant full-length human His-tagged BLK cytoplasmic domain expressed in baculovirus expression system using fluorophore-labeled tyrosine-1 peptide as substrate incubated for 60 mins by Z'-LYTE assay.
Target sequence in this assay (P51451 whole entry, the tested form may be a part): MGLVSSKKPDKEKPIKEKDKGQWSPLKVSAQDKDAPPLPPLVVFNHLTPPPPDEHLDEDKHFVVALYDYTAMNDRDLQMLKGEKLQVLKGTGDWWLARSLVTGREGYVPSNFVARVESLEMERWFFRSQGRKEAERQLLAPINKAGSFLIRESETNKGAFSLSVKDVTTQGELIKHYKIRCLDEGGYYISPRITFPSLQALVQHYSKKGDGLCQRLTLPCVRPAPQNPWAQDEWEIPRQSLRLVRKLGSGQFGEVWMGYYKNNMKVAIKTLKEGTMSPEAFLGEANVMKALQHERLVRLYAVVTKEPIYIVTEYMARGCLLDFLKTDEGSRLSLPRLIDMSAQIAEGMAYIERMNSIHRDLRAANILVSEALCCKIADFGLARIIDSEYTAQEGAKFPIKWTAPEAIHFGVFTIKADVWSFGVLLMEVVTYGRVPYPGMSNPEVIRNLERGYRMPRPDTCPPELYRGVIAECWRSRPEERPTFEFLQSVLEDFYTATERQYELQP
For a further test, the target named is TAK1/TAB1 (Homo sapiens) (UniProt Q15750+O43318). The test is described as follows: Inhibition of tracer 222 binding to recombinant full-length human His-tagged MAP3K7/MAP3K7IP1 (437 to 504 residues) expressed in baculovirus expression system assessed as enzyme residual activity at 0.4 uM incubated for 60 mins by Lanthascreen assay relative to control.
For test [9], the target named is Mitogen-activated protein kinase 3 (Homo sapiens) (UniProt P27361). The test is described as follows: Inhibition of recombinant full length human GST-tagged ERK1 expressed in Escherichia coli assessed as enzyme residual activity at 0.4 uM using fluorophore-labeled serine/threonine-3 peptide as substrate incubated for 60 mins by Z'-LYTE assay relative to control.

The test system of the next test is MOLT-4. Kind of test: Growth inhibition of human MOLT4 cells incubated for 72 hrs by CellTiter-Glo luminescent cell viability assay. It is filed as functional. The conditions noted are these: MOLT-4, 72 h.
The target in test [10] is Epidermal growth factor receptor (Homo sapiens, UniProt P00533). The test is described as follows: Inhibition of recombinant human N-terminal GST-tagged EGFR kinase domain (696 to end residues) expressed in baculovirus infected Sf21 insect cells using STK as substrate by HTRF assay.
Another test concerns H9. Kind of test: Growth inhibition of human H9 cells incubated for 72 hrs by CellTiter-Glo luminescent cell viability assay. It is filed as functional. The conditions noted are these: H9, 72 h.
Test [11] addresses Aurora kinase B (Homo sapiens) (UniProt Q96GD4). The test is described as follows: Inhibition of recombinant full length human His-tagged Aurora B expressed in baculovirus expression system assessed as enzyme residual activity at 0.4 uM using fluorophore-labeled serine/threonine-1 peptide as substrate incubated for 60 mins by Z'-LYTE assay relative to control.

Sequence of Epidermal growth factor receptor (P00533 whole entry, the tested form may be a part): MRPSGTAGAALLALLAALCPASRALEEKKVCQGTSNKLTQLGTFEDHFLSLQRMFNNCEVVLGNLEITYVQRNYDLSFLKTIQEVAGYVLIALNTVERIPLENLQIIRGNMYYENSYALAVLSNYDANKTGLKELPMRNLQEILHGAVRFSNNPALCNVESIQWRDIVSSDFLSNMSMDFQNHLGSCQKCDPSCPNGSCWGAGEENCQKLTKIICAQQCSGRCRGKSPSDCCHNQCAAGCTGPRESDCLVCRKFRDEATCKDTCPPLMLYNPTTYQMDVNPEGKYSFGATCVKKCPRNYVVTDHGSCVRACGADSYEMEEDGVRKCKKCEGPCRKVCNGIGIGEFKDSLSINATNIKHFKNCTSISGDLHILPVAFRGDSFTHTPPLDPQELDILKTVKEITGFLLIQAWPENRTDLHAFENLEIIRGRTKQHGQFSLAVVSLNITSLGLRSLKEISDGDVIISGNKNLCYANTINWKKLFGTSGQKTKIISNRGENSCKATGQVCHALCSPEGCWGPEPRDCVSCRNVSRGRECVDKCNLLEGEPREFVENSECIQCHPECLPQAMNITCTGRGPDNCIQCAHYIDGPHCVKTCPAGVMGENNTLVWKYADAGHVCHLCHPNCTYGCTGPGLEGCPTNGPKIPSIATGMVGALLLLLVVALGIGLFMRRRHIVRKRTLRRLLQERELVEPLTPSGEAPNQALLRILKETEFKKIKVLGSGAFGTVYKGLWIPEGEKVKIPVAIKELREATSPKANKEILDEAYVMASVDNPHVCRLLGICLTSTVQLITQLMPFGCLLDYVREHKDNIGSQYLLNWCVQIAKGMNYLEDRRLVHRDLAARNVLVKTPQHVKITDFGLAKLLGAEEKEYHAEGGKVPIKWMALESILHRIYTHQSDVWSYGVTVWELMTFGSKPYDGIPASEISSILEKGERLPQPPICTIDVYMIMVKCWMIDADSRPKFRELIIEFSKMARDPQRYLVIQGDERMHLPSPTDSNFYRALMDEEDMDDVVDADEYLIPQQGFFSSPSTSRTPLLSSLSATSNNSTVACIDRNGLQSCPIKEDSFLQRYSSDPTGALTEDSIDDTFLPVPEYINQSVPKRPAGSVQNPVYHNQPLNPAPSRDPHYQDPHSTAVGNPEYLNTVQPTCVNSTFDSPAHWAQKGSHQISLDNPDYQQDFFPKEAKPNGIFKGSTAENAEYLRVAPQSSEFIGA
Sequence of Serine/threonine-protein kinase Chk2 (Homo sapiens) (O96017 whole entry): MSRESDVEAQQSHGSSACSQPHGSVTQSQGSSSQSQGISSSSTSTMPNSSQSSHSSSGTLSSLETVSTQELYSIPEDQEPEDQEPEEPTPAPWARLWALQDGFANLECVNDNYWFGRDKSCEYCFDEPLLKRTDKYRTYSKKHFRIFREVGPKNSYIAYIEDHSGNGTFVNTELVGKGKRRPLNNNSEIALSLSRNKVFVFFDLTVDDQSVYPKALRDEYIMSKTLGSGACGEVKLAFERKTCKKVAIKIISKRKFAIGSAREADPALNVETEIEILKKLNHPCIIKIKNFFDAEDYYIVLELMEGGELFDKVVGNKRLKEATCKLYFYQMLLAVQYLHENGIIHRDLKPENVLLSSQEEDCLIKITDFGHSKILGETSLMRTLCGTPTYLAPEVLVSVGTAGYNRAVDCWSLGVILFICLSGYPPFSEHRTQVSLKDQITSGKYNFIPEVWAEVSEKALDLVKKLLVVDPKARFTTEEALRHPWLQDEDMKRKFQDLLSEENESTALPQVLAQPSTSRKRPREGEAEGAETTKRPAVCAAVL
Sequence of Interleukin-1 receptor-associated kinase 4 (Homo sapiens) (Q9NWZ3 whole entry): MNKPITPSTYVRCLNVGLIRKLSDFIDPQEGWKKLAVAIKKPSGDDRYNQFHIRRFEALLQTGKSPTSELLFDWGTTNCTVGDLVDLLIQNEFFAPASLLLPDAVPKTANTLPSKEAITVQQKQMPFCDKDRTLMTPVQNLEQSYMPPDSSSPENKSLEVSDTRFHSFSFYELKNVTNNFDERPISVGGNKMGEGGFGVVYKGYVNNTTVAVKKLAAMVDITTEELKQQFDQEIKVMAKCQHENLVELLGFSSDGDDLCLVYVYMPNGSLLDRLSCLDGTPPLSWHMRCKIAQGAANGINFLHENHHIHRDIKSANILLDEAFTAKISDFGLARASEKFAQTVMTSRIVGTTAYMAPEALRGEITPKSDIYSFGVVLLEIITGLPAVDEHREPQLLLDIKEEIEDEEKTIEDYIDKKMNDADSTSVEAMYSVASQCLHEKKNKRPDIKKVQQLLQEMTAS
Sequence of Mitogen-activated protein kinase 3 (Homo sapiens) (P27361 whole entry): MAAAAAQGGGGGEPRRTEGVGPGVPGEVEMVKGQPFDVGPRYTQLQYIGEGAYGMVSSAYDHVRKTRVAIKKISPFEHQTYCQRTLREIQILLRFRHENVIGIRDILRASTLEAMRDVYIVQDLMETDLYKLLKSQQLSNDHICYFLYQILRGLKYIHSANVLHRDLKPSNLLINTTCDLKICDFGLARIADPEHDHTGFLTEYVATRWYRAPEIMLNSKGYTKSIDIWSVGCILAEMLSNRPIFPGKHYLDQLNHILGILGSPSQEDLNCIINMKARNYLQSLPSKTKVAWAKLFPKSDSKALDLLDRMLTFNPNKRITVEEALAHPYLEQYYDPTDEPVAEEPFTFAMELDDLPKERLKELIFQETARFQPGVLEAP
Sequence of Aurora kinase B (Homo sapiens) (Q96GD4 whole entry): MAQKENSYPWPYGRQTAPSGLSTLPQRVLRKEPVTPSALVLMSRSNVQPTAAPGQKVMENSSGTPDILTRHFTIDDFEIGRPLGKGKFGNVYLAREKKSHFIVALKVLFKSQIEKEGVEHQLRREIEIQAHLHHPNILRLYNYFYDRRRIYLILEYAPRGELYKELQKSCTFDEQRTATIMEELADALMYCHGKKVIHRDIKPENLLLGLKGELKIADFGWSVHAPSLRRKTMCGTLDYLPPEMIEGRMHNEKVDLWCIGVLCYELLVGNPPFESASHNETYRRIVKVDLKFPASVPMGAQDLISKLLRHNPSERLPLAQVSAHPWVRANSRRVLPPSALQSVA
Sequence of Mitogen-activated protein kinase 14 (Homo sapiens) (Q16539 whole entry): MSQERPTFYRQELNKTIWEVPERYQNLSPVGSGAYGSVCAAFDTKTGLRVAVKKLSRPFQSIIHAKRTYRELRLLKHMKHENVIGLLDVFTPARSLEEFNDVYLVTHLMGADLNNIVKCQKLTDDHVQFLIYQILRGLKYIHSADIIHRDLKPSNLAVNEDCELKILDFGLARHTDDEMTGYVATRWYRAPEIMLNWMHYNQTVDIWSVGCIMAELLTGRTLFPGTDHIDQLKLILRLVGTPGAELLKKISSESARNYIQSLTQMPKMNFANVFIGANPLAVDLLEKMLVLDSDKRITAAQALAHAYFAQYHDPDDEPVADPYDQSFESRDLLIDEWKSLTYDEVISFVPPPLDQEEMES
Sequence of Mitogen-activated protein kinase 8 (Homo sapiens) (P45983 whole entry): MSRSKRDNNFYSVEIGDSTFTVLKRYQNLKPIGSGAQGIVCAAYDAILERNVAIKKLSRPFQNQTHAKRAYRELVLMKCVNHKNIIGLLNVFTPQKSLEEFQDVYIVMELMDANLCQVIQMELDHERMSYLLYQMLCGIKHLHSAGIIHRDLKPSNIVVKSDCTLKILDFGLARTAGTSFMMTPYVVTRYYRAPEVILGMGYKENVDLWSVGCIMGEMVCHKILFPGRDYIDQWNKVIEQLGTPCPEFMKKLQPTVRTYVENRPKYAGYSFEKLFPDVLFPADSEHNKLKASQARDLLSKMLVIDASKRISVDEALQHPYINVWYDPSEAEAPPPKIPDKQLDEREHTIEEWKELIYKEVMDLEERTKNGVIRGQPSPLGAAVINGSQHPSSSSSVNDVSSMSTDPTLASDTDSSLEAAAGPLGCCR

One may read the GI50 as the concentration at which growth is held to half of that of the control. What is called IC50 is the point on the concentration scale where inhibition reaches its midpoint. `C=CC(=O)N1CCC(Oc2nc(Nc3ccc(N4CCOCC4)cc3)nc3[nH]cc(-c4cncc(NC)n4)c23)CC1`: the Activity was 79% in [1]; 25% in test [2]; 95% in [3]; 19.3% in test [4]; 78.7% in test [5]; 9% in test [7]. For the same compound, the Activity on TAK1/TAB1 (Homo sapiens) was 0%; in [9], 98.7%; in [11], 36%. Further, the GI50 in the test with Jurkat is 184 nM; in the test on MOLT-4, 167 nM; in the test on H9, 232 nM. Also, in the test listed under Homo sapiens, the Ratio IC50 was determined as 250. In addition, the IC50 in test [6] was determined as 123 nM; in test [8] it was 198 nM; in test [10], 1260 nM. For the same compound, the outcome in the test on CCRF-CEM was Active.
